According to US20230167088A1, “1-PYRAZINYLPYRAZOLYL-3-OXYALKYL ACIDS AND THEIR DERIVATIVES, AND THEIR USE FOR CONTROL OF UNDESIRED PLANT GROWTH” (BAYER AKTIENGESELLSCHAFT, priority 2020, published 2023):

Legend:
POAAN [1] = assay: Herbicidal post-emergence action 1b (twin sowing, 1280 g/ha); type: in vivo, Poa annua; details: dosage 1280 g/ha, visual rating about 3 weeks after treatment
How it was run: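 Compounds formulated as WP or EC were applied with 0.5% additive in 600 L/ha water onto one-leaf-stage weeds, each pot sown with one monocot and one dicot species in sandy loam. After roughly 3 weeks in the greenhouse, visual percent activity was scored against untreated plants.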

ABUTH = assay: as above; type: in vivo, Abutilon theophrasti; details: dosage 1280 g/ha, visual rating about 3 weeks after treatment
Protocol: (§1) [table] b) Seeds of mono- and dicotyledonous weed plants are placed in plastic pots in sandy loam soil (twin sowing with one species each of mono- or dicotyledonous weed plants per pot), covered with soil and cultivated in a greenhouse under controlled growth conditions. 2 to 3 weeks after sowing, the test plants are treated at the one-leaf stage. The compounds of the invention, formulated in the form of wettable powders (WP) or as emulsion concentrates (EC), are applied to the green parts of the plants as aqueous suspension or emulsion with addition of 0.5% additive at a water application rate equivalent to 600 litres per hectare. After the test plants have been kept in the greenhouse under optimum growth conditions for about 3 weeks, the activity of the preparations is rated visually in comparison to untreated controls. For example, 100% activity=the plants have died, 0% activity=like control plants. Tables A16 to A21 below show the effects of selected compounds of the general formula (I) according to Tables 1 and 2 on various harmful plants and at an application rate corresponding to 1280 g/ha, which were obtained by the experimental procedure mentioned above.

AMARE = assay: Herbicidal pre-emergence action 2b (doubly sown, 1280 g/ha); type: in vivo, Amaranthus retroflexus; details: doubly sown pots, dosage 1280 g/ha, visual scoring after about 3 weeks
How it was run: (§2)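 Visual % scores against untreated plants (0% = like control, 100% = dead) were taken roughly 3 weeks after treatment in the greenhouse. Compounds, as WP or EC with 0.5% additive, were applied in 600 l/ha water onto covering soil over seeds of paired mono-/dicot weeds in sandy loam.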

DIGSA [2] = assay: as above; type: in vivo, Digitaria sanguinalis; details: doubly sown pots, dosage 1280 g/ha, visual scoring after about 3 weeks
Description: [table] b) Seeds of mono- and dicotyledonous weed plants are placed in plastic pots in sandy loam soil (doubly sown with one species each of mono- or dicotyledonous weed plants per pot) and covered with soil. The compounds of the invention, formulated in the form of wettable powders (WP) or as emulsion concentrates (EC), are then applied onto the surface of the covering soil as aqueous suspension or emulsion with addition of 0.5% additive at a water application rate equivalent to 600 litres per hectare. After the treatment, the pots are placed in a greenhouse and kept under good growth conditions for the trial plants. After about 3 weeks, the effect of the preparations is scored visually in comparison with untreated controls as percentages. For example, 100% activity=the plants have died, 0% activity=like control plants. Tables B16 to B21 below show the effects of selected compounds of the general formula (I) according to Tables 1 and 2 on various harmful plants and at an application rate corresponding to 1280 g/ha, which were obtained by the experimental procedure mentioned above.

POAAN [3] = assay: as above; type: in vivo, Poa annua; details: doubly sown pots, dosage 1280 g/ha, visual scoring after about 3 weeks
How it was run: as §2

STEME [4] = assay: as above; type: in vivo, Stellaria media; details: doubly sown pots, dosage 1280 g/ha, visual scoring after about 3 weeks
How it was run: as §2

DIGSA [5] = assay: Herbicidal post-emergence action 1b (twin sowing, 1280 g/ha); type: in vivo, Digitaria sanguinalis; details: dosage 1280 g/ha, visual rating about 3 weeks after treatment
Protocol: as §1

ECHCG [6] = assay: Herbicidal pre-emergence action 2b (doubly sown, 1280 g/ha); type: in vivo, Echinochloa crus-galli; details: doubly sown pots, dosage 1280 g/ha, visual scoring after about 3 weeks
How it was run: as §2

MATIN [7] = assay: as above; type: in vivo, Matricaria inodora; details: doubly sown pots, dosage 1280 g/ha, visual scoring after about 3 weeks
How it was run: as §2

STEME [8] = assay: Herbicidal post-emergence action 1b (twin sowing, 1280 g/ha); type: in vivo, Stellaria media; details: dosage 1280 g/ha, visual rating about 3 weeks after treatment
Protocol: as §1

MATIN [9] = assay: as above; type: in vivo, Matricaria inodora; details: dosage 1280 g/ha, visual rating about 3 weeks after treatment
Protocol: as §1

ECHCG [10] = assay: as above; type: in vivo, Echinochloa crus-galli; details: dosage 1280 g/ha, visual rating about 3 weeks after treatment
Protocol: as §1

Row | Structure (SMILES) | Post-emergence action at 1280 g/ha against POAAN in % (POAAN [1]) | Post-emergence action at 1280 g/ha against ABUTH in % (ABUTH) | Pre-emergence action at 1280 g/ha against AMARE in % (AMARE) | Pre-emergence action at 1280 g/ha against DIGSA in % (DIGSA [2]) | Pre-emergence action at 1280 g/ha against POAAN in % (POAAN [3]) | Pre-emergence action at 1280 g/ha against STEME in % (STEME [4]) | Post-emergence action at 1280 g/ha against DIGSA in % (DIGSA [5]) | Pre-emergence action at 1280 g/ha against ECHCG in % (ECHCG [6]) | Pre-emergence action at 1280 g/ha against MATIN in % (MATIN [7]) | Post-emergence action at 1280 g/ha against STEME in % (STEME [8]) | Post-emergence action at 1280 g/ha against MATIN in % (MATIN [9]) | Post-emergence action at 1280 g/ha against ECHCG in % (ECHCG [10])
1 | CC(Oc1nn(-c2cnccn2)c(-c2ccc(F)nc2)c1Br)C(=O)O (racemic) [Example I-24] | 100% | 90% | 90% | 100% | 100% | 90% |  |  |  |  |  | 
2 | COC(=O)[C@@H](C)Oc1nn(-c2cnccn2)c(-c2cccnc2)c1Br [Example I-38] | 100% |  | 100% | 100% | 100% | 100% | 90% | 100% | 100% | 100% | 90% | 100%
3 | COC(=O)COc1nn(-c2cnccn2)c(-c2cnc(F)c(F)c2)c1Br [Example I-42] | 100% |  | 90% | 100% | 100% | 90% | 90% |  | 90% |  | 100% | 
4 | CCOC(=O)COc1nn(-c2cnccn2)c(-c2ccc(F)nc2)c1C(F)(F)F [Example I-66] | 90% | 90% | 100% | 100% | 100% | 100% |  | 90% | 100% |  | 90% | 
